Reference: patent US20260216116A1, “QUATERNARY AMMONIUM COMPOUNDS (QACS) AND PROCESS FOR PREPARATION THEREOF” (priority 2023, published 2026)

Assay: Dissociation of 1 carboxy N—N—N trimethylmethanaminium benzoate in buffer solutions
Type: physicochemical
Protocol: Sample Preparation: 750 mg sample was dissolved in 250 mL of respective buffer solution and kept in orbital shaker at 37° C. for 30 minutes, 1 hour and 2 hours in separate flask. […]

[1] = pH 1.2 (0.1N HCl), 1 Hours, 37° C.
[2] = pH 1.2 (0.1N HCl), 2 Hours, 37° C.
[3] = pH 1.2 (0.1N HCl), 30 Minutes, 37° C.
[4] = pH 1.2 (0.1N HCl), Initial, 750 mg in 250 mL, 37° C.
[5] = pH 6.8 (Phosphate Buffer), 1 Hours, 37° C.
[6] = pH 6.8 (Phosphate Buffer), 2 Hours, 37° C.
[7] = pH 6.8 (Phosphate Buffer), 30 Minutes, 37° C.
[8] = pH 6.8 (Phosphate Buffer), Initial
[9] = pH 6.8 (Phosphate Buffer), Initial, 750 mg in 250 mL, 37° C.

Dissociation (1.2 pH): completely dissociated | Dissociation (6.8 pH): completely dissociated | Concentration in %: 1 carboxy N-N-N trimethylmethanaminium, % (Control): 70% | Concentration in %: Benzoic acid, % (Control): 36% | %, Dissociation of 1 carboxy N-N-N trimethylmethanaminium [1]: 100% | %, Dissociation of Benzoic acid [1]: 115% | Concentration in %: 1 carboxy N-N-N trimethylmethanaminium, % [1]: 69% | Concentration in %: Benzoic acid, % [1]: 41% | %, Dissociation of 1 carboxy N-N-N trimethylmethanaminium [2]: 100% | %, Dissociation of Benzoic acid [2]: 114% | Concentration in %: 1 carboxy N-N-N trimethylmethanaminium, % [2]: 70% | Concentration in %: Benzoic acid, % [2]: 41% | %, Dissociation of 1 carboxy N-N-N trimethylmethanaminium [3]: 98% | %, Dissociation of Benzoic acid [3]: 115% | Concentration in %: 1 carboxy N-N-N trimethylmethanaminium, % [3]: 68% | Concentration in %: Benzoic acid, % [3]: 41% | %, Dissociation of 1 carboxy N-N-N trimethylmethanaminium (pH 1.2 (0.1N HCl), Initial): 97% | %, Dissociation of Benzoic acid (pH 1.2 (0.1N HCl), Initial): 94% | Concentration in %: 1 carboxy N-N-N trimethylmethanaminium, % [4]: 67% | Concentration in %: Benzoic acid, % [4]: 34% | %, Dissociation of 1 carboxy N-N-N trimethylmethanaminium [5]: 97% | %, Dissociation of Benzoic acid [5]: 109% | Concentration in %: 1 carboxy N-N-N trimethylmethanaminium, % [5]: 70% | Concentration in %: Benzoic acid, % [5]: 40% | %, Dissociation of 1 carboxy N-N-N trimethylmethanaminium [6]: 99% | %, Dissociation of Benzoic acid [6]: 108% | Concentration in %: 1 carboxy N-N-N trimethylmethanaminium, % [6]: 71% | Concentration in %: Benzoic acid, % [6]: 40% | %, Dissociation of 1 carboxy N-N-N trimethylmethanaminium [7]: 98% | %, Dissociation of Benzoic acid [7]: 109% | Concentration in %: 1 carboxy N-N-N trimethylmethanaminium, % [7]: 71% | Concentration in %: Benzoic acid, % [7]: 40% | %, Dissociation of 1 carboxy N-N-N trimethylmethanaminium [8]: 96% | %, Dissociation of Benzoic acid [8]: 97% | Concentration in %: 1 carboxy N-N-N trimethylmethanaminium, % [9]: 69% | Concentration in %: Benzoic acid, % [9]: 36%
Compound: C[N+](C)(C)CC(=O)O.O=C([O-])c1ccccc1 [1-carboxy-N—N—N-trimethylmethanaminium benzoate]
